Patent US20250134874A1, “PHARMACEUTICAL FORMULATIONS COMPRISING 3-({[(4R)-7-{METHYL[4-(PROPAN-2-YL)PHENYL]AMINO}-3,4-DIHYDRO-2H-1-BENZOPYRAN-4-YL]METHYL}AMINO)PYRIDINE-4-CARBOXYLIC ACID” (TACHYON THERAPEUTICS, INC., priority 2021, published 2025)

System: 301 cancer cell lines from different tumor types (OncoPanel; HD Biosciences)
Assay: 2D cell viability inhibition assay (CellTiter-Glo) in cancer cell line panel
Assay type: cell-based
Design: key to AUC: AUC as fraction of the no-inhibition area (dose range × 0–100 % of control)
Details: for Emax: in %
Method: In a larger screening study, compound 1 was evaluated across a broad cancer cell line panel (OncoPanel; HD Biosciences) composed of 301 cancer cell lines from different tumor types.
2D cell viability inhibition assays were performed in multiwell plates seeded with cells from the panel. After seeding, the plates were cultured overnight in a humidified incubator at 37° C. to promote adherence. Assays were initiated in individual wells by adding either DMSO as a vehicle control, growth media as a blank, or serially diluted compound 1 (10 μM to 0.0005 μM with 1:3 serial dilution). Cultures were incubated for 168 hours after which the number of viable cells in each test well was assessed using the CellTiter-Glo® Luminescent Cell Viability Assay. Luminescence readouts were performed using an EnVision® Multilabel Reader and the compound 1 readouts were normalized to the DMSO control readouts, expressed as a percent of the control. Outliers were flagged out by visual inspection. Percent of control was plotted against the corresponding compound 1 concentration and the absolute IC50 value was determined using four-parameter logistic non-linear regression as the concentration where inhibition was 50% of the control. For maximum inhibition <50%, the absolute IC50 was reported as >10. In addition to EC50 and IC50, AUC was determined and was normalized to the area corresponding to theoretical no-inhibition (the rectangular area defined by the compound dose range and 0 to 100 in y). Emax was recorded as the minimum in y with the compound dose range. For those cell lines where Emax>40, EC50 was manually set to 10 μM. A hierarchical clustering algorithm based on Euclidean distance between the standardized input values and “Ward.D” method as implemented in R hclust function was used to visualize the compound 1 cellular potency data. The sensitive/moderate/resistant calls for each cell line was determined by visually inspecting the resulting clustering dendrogram. All the analyses were done in R Core Team.

CC(C)c1ccc(N(C)c2ccc3c(c2)OCC[C@H]3CNc2cnccc2C(=O)O)cc1 [Compound 1, 3-({[(4R)-7-{methyl[4-(propan-2-yl)phenyl]amino}-3,4-dihydro-2H-1-benzopyran-4-yl]methyl}amino)pyridine-4-carboxylic acid]
AUC (RPMI7951, skin, NS, 168 hours): 0.8067 | AUC (RPMI8226 cell line): 0.4363 | Emax (RPMI8226 cell line): 12.46 | AUC (RT11284 cell line): 0.3717 | AUC (SAOS2, bone, NS, 168 hours): 1.081 | AUC (SCABER cell line): 0.5687 | Emax (SCABER cell line): 32.32 | AUC (SCC4 cell line): 0.4619 | Emax (SCC4 cell line): 26.08 | AUC (SCC9, upper aerodigestive tract, squamous cell carcinoma, 168 hours): 0.9424 | AUC (SCC15, upper aerodigestive tract, squamous cell carcinoma, 168 hours): 0.9489 | AUC (SCC25, upper aerodigestive tract, squamous cell carcinoma, 168 hours): 0.7789 | AUC (SHSY5Y cell line): 0.4927 | Emax (SHSY5Y cell line): 25.04 | AUC (SKBR3 cell line): 0.4396 | Emax (SKBR3 cell line): 26.59 | AUC (SKCO1 cell line): 0.5952 | AUC (SKHEP1, liver, adenocarcinoma, 168 hours): 0.7091 | AUC (SKLU1 cell line): 0.5662 | AUC (SKMEL1 cell line): 0.4427 | Emax (SKMEL1 cell line): 22.0664 | AUC (SKMEL2 cell line): 0.6392 | AUC (SKMEL3 cell line): 0.6207 | AUC (SKMEL5 cell line): 0.4074 | Emax (SKMEL5 cell line): 8.228 | AUC (SKMEL24, skin, NS, 168 hours): 0.7882 | AUC (SKMEL28 cell line): 0.2796 | AUC (SKMEL31, skin, NS, 168 hours): 0.7393 | AUC (SKMES1 cell line): 0.6069 | AUC (SKNSH, autonomic ganglia, NS, 168 hours): 0.7295 | AUC (SKOV3, ovary, adenocarcinoma, 168 hours): 0.9901 | AUC (SNB19 cell line): 0.4677 | Emax (SNB19 cell line): 20.73 | AUC (SNGM cell line): 0.9165 | EC50 (SNGM cell line): 4140 nM | IC50 (SNGM cell line): 4900 nM | AUC (SNU5 cell line): 0.6837 | AUC (SNU16 cell line): 0.2821 | AUC (SNU398 cell line): 0.4911 | Emax (SNU398 cell line): 25.8616 | EC50 (SNU668, SNU668 cell line): 12.8 nM | IC50 (SNU668, SNU668 cell line): 18.9 nM | AUC (SNU668 cell line): 0.464 | AUC (SNU761 cell line): 0.5814 | EC50 (SNU761 cell line): ≥ 10000 nM | IC50 (SNU761 cell line): 39.7 nM | IC50 (SNU878, SNU878 cell line): > 10000 nM | AUC (SNU878 cell line): 0.6648 | AUC (SNU886 cell line): 0.6425 | IC50 (SNU-886, SNU886 cell line): > 10000 nM | AUC (SNUC1, large intestine, adenocarcinoma, 168 hours): 0.7478 | AUC (SNUC2A cell line): 0.615 | EC50 (SNUC2A cell line): 24.5 nM | IC50 (SNUC2A cell line): 52.5 nM | AUC (SUPT1 cell line): 0.6913 | AUC (SW48 cell line): 0.6038 | AUC (SW480 cell line): 0.409 | Emax (SW480 cell line): 20.36 | IC50 (SW579, 168 h, SW579, thyroid, anaplastic carcinoma, 168 hours): > 10000 nM | AUC (SW579, thyroid, anaplastic carcinoma, 168 hours): 0.9203 | AUC (SW620 cell line): 0.4658 | AUC (SW780 cell line): 0.4491 | Emax (SW780 cell line): 13.9761 | AUC (SW837, large intestine, adenocarcinoma, 168 hours): 0.7109 | IC50 (SW1271, 168 h, SW1271, lung, small cell carcinoma, 168 hours): > 10000 nM | AUC (SW1271, lung, small cell carcinoma, 168 hours): 0.8179 | AUC (SW1417, large intestine, adenocarcinoma, 168 hours): 0.9634 | AUC (SW1463 cell line): 0.3408 | Emax (SW1463 cell line): 7.126 | AUC (SW1710 cell line): 0.5768 | AUC (SW1990 cell line): 0.6894 | AUC (T24, urinary tract, transitional cell carcinoma, 168 hours): 0.9289 | AUC (T84 cell line): 0.4928 | AUC (T.T cell line): 0.4321 | Emax (T.T cell line): 24.08 | AUC (TALL1 cell line): 0.1999 | AUC (TE1, oesophagus, squamous cell carcinoma, 168 hours): 0.938 | AUC (TE4 cell line): 0.3948 | EC50 (TE4 cell line): 9.11 nM | IC50 (TE4 cell line): 12.7 nM | Emax (TE4 cell line): 11.49 | AUC (TE5 cell line): 0.3877 | Emax (TE5 cell line): 15.07 | AUC (TE6 cell line): 0.3625 | Emax (TE6 cell line): 14.02 | AUC (TE8, oesophagus, squamous cell carcinoma, 168 hours): 0.816 | AUC (TE9 cell line): 0.4247 | Emax (TE9 cell line): 25.31 | AUC (TE10 cell line): 0.5293 | Emax (TE10 cell line): 29.65 | AUC (TE11 cell line): 0.304 | AUC (TE14 cell line): 0.3068 | EC50 (TE14 cell line): 2.32 nM | IC50 (TE14 cell line): 3.39 nM | AUC (TE15, oesophagus, squamous cell carcinoma, 168 hours): 1.084 | AUC (TF1 cell line): 0.2883 | AUC (THP1 cell line): 0.3371 | AUC (TOV112D cell line): 0.3964 | Emax (TOV112D cell line): 23.19 | AUC (U2OS cell line): 0.4065 | Emax (U2OS cell line): 9.064 | AUC (U87MG cell line): 0.514 | Emax (U87MG cell line): 38.45 | AUC (U937 cell line): 0.1808 | AUC (UACC812, breast, ductal carcinoma, 168 hours): 0.8418 | AUC (UMUC3 cell line): 0.5934 | AUC (VCAP, prostate, adenocarcinoma, 168 hours): 0.7822 | AUC (WM115 cell line): 0.6097 | AUC (WM2664 cell line): 0.5838 | AUC (WSUDLCL2 cell line): 0.2829 | AUC (YD38 cell line): 0.2983 | EC50 (YD38 cell line): 3.55 nM | IC50 (YD38 cell line): 3.77 nM
